Experimental data published in patent publication US7846697B2, “Method of producing a low molecular weight organic compound in a cell” (BLMaps, priority 2003, dated 2010).

Assays:
[1] = test system: E. coli strain JM109 transformants; assay: Toxicity of vanillin with IPTG-induced expression of UGT85B1 or AS, growth on plates; assay type: cell-based; note: key: −: No growth; +: weak growth; ++: good growth
Description: (§1) The E. coli strains TOP10, JM109, and KO1418 were all transformed with the constructed plasmids pJH401, pJH402, pJH411 and pJH412, and pKK223-3 as control, employing standard transformation protocols. Transformants were selected for ampicilin resistance, and two transformants of each E. coli strain with each plasmid were kept for expression experiments. The E. coli transformants were inoculated from plate cultures into 2 ml liquid growth medium (LB medium containing ampicilin at 100 μg/ml), and allowed to grow for 20 hours at 37° C. The precultures were diluted 100 times 10^4 times and 10^6 times in growth medium, and 4 μl droplets of these cell suspensions were applied to the surface of Petri dishes containing solid LB-ampicilin medium containing varying concentrations of vanillin (based on the STV determinations described above), and without or with (to induce gene expression) 1 mM isopropyl thiogalactoside (IPTG). The plates were incubated at 37° C. for 24 hours, after which growth on the various concentrations of vanillin was monitored and recorded.

[2] = test system: E. coli strain KO1418 transformants; assay: as above; assay type: cell-based
Description: as §1

[3] = test system: E. coli strain TOP10; assay: Vanillin sensitivity (STV) on solid LB growth medium; assay type: cell-based; conditions: no growth at 1/10000 dilution, growth at 1/100 severely inhibited, 24 hours
Description: (§2) The three different E. coli strains TOP10, JM109, and KO1418 were grown for 18 hours in the appropriate media, after which serial dilutions in growth medium (dilution factors 1, 1/100, 1/10000 and 1/1000000) were made. Droplets of these cell suspensions were applied to Petri dishes containing solid LB growth medium with various concentrations of vanillin, and the plates were incubated at the appropriate growth temperature for 24 hours (E. coli), after which they were photographed. […] This number constituted the STV (Sensitivity To Vanillin) level. The STV numbers for the different microorganisms studied can be seen in Table 9.1.

[4] = test system: E. coli strain KO1418; assay: as above; assay type: cell-based; conditions: no growth at 1/10000 dilution, growth at 1/100 severely inhibited, 24 hours
Description: as §2

[5] = test system: E. coli strain JM109; assay: as above; assay type: cell-based; conditions: no growth at 1/10000 dilution, growth at 1/100 severely inhibited, 24 hours
Description: as §2

[6] = test system: E. coli strain KO1418 transformants; assay: Toxicity of vanillin with IPTG-induced expression of UGT85B1 or AS, growth on plates; assay type: cell-based; set-up: key: −: No growth; +: weak growth; ++: good growth; conditions: KO1418 [pJH410]
[7] = test system: E. coli strain KO1418 transformants; assay: Toxicity of vanillin with constitutive expression of UGT85B1 or AS, growth on plates; assay type: cell-based
Excerpt: For experimentation with constitutive expression of UGT85B1 and AS, the E. coli strains JM109, and K01418 were transformed with the constructed plasmids pJH 430, pJH431, pJH432, pJH433, pJH434, pJH435, pJH436, pJH437, pJH438, pJH439, pJH440, and pJH441, and pKOL30 as control, employing standard transformation protocols. Transformants were selected for ampicilin resistance, and two transformants of each E. coli strain with each plasmid were kept for expression experiments. The E. coli transformants were inoculated from plate cultures into 2 ml liquid growth medium (LB medium containing ampicilin at 100 μg/ml), and allowed to grow for 20 hours at 37° C. The precultures were diluted 100 times 10^4 times and 10^6 times in growth medium, and 4 μl droplets of these cell suspensions were applied to the surface of Petri dishes containing solid LB-ampicilin medium containing varying concentrations of vanillin (based on the STV determinations described above). The plates were incubated at 37° C. for 24 hours, after which growth on the various concentrations of vanillin was monitored and recorded.

[8] = test system: microorganisms; conditions: Pfeifer et al, 1984; cited from earlier work
[9] = test system: E. coli strain JM109 transformants; assay: Toxicity of vanillin with IPTG-induced expression of UGT85B1 or AS, growth on plates; assay type: cell-based; conditions: JM109 [pJH410], IPTG induction No; note: key: −: No growth; +: weak growth; ++: good growth

COc1cc(C=O)ccc1O [Vanillin, vanillin]
growth ([1]; JM109 [pJH401], 0.08% vanillin, IPTG induction No): ++
growth ([1]; JM109 [pJH401], 0.08% vanillin, IPTG induction Yes): ++
growth ([1]; JM109 [pJH401], 0.12% vanillin, IPTG induction No): ++
growth ([1]; JM109 [pJH401], 0.12% vanillin, IPTG induction Yes): ++
growth ([1]; JM109 [pJH401], 0.16% vanillin, IPTG induction No): −
growth ([1]; JM109 [pJH401], 0.16% vanillin, IPTG induction Yes): −
growth ([1]; JM109 [pJH401], 0.2% vanillin, IPTG induction No): −
growth ([1]; JM109 [pJH401], 0.2% vanillin, IPTG induction Yes): −
growth ([1]; JM109 [pJH402], 0.08% vanillin, IPTG induction No): ++
growth ([1]; JM109 [pJH402], 0.08% vanillin, IPTG induction Yes): ++
growth ([1]; JM109 [pJH402], 0.12% vanillin, IPTG induction No): ++
growth ([1]; JM109 [pJH402], 0.12% vanillin, IPTG induction Yes): ++
growth ([1]; JM109 [pJH402], 0.16% vanillin, IPTG induction No): +
growth ([1]; JM109 [pJH402], 0.16% vanillin, IPTG induction Yes): ++
growth ([1]; JM109 [pJH402], 0.2% vanillin, IPTG induction No): −
growth ([1]; JM109 [pJH402], 0.2% vanillin, IPTG induction Yes): −
growth ([1]; JM109 [pJH410], 0.08% vanillin, IPTG induction Yes): ++
growth ([1]; JM109 [pJH410], 0.12% vanillin, IPTG induction No): ++
growth ([1]; JM109 [pJH410], 0.12% vanillin, IPTG induction Yes): ++
growth ([1]; JM109 [pJH410], 0.16% vanillin, IPTG induction No): ++
growth ([1]; JM109 [pJH410], 0.16% vanillin, IPTG induction Yes): +
growth ([1]; JM109 [pJH410], 0.2% vanillin, IPTG induction Yes): −
growth ([1]; JM109 [pKK223-3], 0.08% vanillin, IPTG induction No): ++
growth ([1]; JM109 [pKK223-3], 0.08% vanillin, IPTG induction Yes): ++
growth ([1]; JM109 [pKK223-3], 0.12% vanillin, IPTG induction No): ++
growth ([1]; JM109 [pKK223-3], 0.12% vanillin, IPTG induction Yes): ++
growth ([1]; JM109 [pKK223-3], 0.16% vanillin, IPTG induction No): −
growth ([1]; JM109 [pKK223-3], 0.16% vanillin, IPTG induction Yes): −
growth ([1]; JM109 [pKK223-3], 0.2% vanillin, IPTG induction No): −
growth ([1]; JM109 [pKK223-3], 0.2% vanillin, IPTG induction Yes): −
growth ([2]; KO1418 [pJH401], 0.08% vanillin, IPTG induction No): ++
growth ([2]; KO1418 [pJH401], 0.08% vanillin, IPTG induction Yes): ++
growth ([2]; KO1418 [pJH401], 0.12% vanillin, IPTG induction No): ++
growth ([2]; KO1418 [pJH401], 0.12% vanillin, IPTG induction Yes): ++
growth ([2]; KO1418 [pJH401], 0.16% vanillin, IPTG induction No): −
growth ([2]; KO1418 [pJH401], 0.16% vanillin, IPTG induction Yes): ++
growth ([2]; KO1418 [pJH401], 0.2% vanillin, IPTG induction No): −
growth ([2]; KO1418 [pJH401], 0.2% vanillin, IPTG induction Yes): −
growth ([2]; KO1418 [pJH402], 0.08% vanillin, IPTG induction No): ++
growth ([2]; KO1418 [pJH402], 0.08% vanillin, IPTG induction Yes): ++
growth ([2]; KO1418 [pJH402], 0.12% vanillin, IPTG induction No): ++
growth ([2]; KO1418 [pJH402], 0.12% vanillin, IPTG induction Yes): ++
growth ([2]; KO1418 [pJH402], 0.16% vanillin, IPTG induction No): +
growth ([2]; KO1418 [pJH402], 0.16% vanillin, IPTG induction Yes): ++
growth ([2]; KO1418 [pJH402], 0.2% vanillin, IPTG induction No): −
growth ([2]; KO1418 [pJH402], 0.2% vanillin, IPTG induction Yes): −
growth ([2]; KO1418 [pJH410], 0.08% vanillin, IPTG induction No): ++
growth ([2]; KO1418 [pJH410], 0.12% vanillin, IPTG induction Yes): ++
growth ([2]; KO1418 [pJH410], 0.16% vanillin, IPTG induction No): ++
growth ([2]; KO1418 [pJH410], 0.16% vanillin, IPTG induction Yes): ++
growth ([2]; KO1418 [pJH410], 0.2% vanillin, IPTG induction No): −
growth ([2]; KO1418 [pKK223-3], 0.08% vanillin, IPTG induction No): ++
growth ([2]; KO1418 [pKK223-3], 0.08% vanillin, IPTG induction Yes): ++
growth ([2]; KO1418 [pKK223-3], 0.12% vanillin, IPTG induction No): ++
growth ([2]; KO1418 [pKK223-3], 0.12% vanillin, IPTG induction Yes): ++
growth ([2]; KO1418 [pKK223-3], 0.16% vanillin, IPTG induction No): −
growth ([2]; KO1418 [pKK223-3], 0.16% vanillin, IPTG induction Yes): ++
growth ([2]; KO1418 [pKK223-3], 0.2% vanillin, IPTG induction No): −
growth ([2]; KO1418 [pKK223-3], 0.2% vanillin, IPTG induction Yes): −
STV (Sensitivity To Vanillin) level [3]: 0.12 % (w/v)
STV (Sensitivity To Vanillin) level [4]: 0.18 % (w/v)
STV (Sensitivity To Vanillin) level [5]: 0.14 % (w/v)
growth ([6]; 0.08% vanillin, IPTG induction Yes): ++
growth ([6]; 0.12% vanillin, IPTG induction No): ++
growth ([6]; 0.2% vanillin, IPTG induction Yes): ++
growth ([7]; KO1418 [pJH430], 0.08% vanillin): +++
growth ([7]; KO1418 [pJH430], 0.12% vanillin): +++
growth ([7]; KO1418 [pJH430], 0.16% vanillin): +++
growth ([7]; KO1418 [pJH431], 0.08% vanillin): +++
growth ([7]; KO1418 [pJH431], 0.12% vanillin): +++
growth ([7]; KO1418 [pJH431], 0.16% vanillin): +++
growth ([7]; KO1418 [pJH432], 0.08% vanillin): +++
growth ([7]; KO1418 [pJH432], 0.12% vanillin): +++
growth ([7]; KO1418 [pJH432], 0.16% vanillin): +
growth ([7]; KO1418 [pJH433], 0.08% vanillin): +++
growth ([7]; KO1418 [pJH433], 0.12% vanillin): +++
growth ([7]; KO1418 [pJH433], 0.16% vanillin): +++
growth ([7]; KO1418 [pKOL30], 0.08% vanillin): +++
growth ([7]; KO1418 [pKOL30], 0.12% vanillin): ++
growth ([7]; KO1418 [pKOL30], 0.16% vanillin): +
concentration in the medium at which it acts as a strong growth inhibitor [8]: 5 g/L
growth ([9]; 0.08% vanillin): ++
growth ([9]; 0.2% vanillin): −
